Each structure is given as a SMILES string. Numbered stars: 1 amine (or outer) side, 2 acyl side, 3 side chain; on linkers, the order of the positions; unused ones are H or OH. Bridge positions count the residues as written; N and C are the ends. Square brackets hold non-standard residues; d marks the D form. Side chains are listed from the residue outwards. Peptide text beside a SMILES is read from it. * marks the point of attachment. ξ: configuration not given here. X4 = O=C(O)CN1CCN(CC(=O)O)CCN(CC(=O)N[C@H]2CC[C@H](CC(=O)*)CC2)CCN(CC(=O)O)CC1; X9 = O=C(O)CN1CCN(CC(=O)O)CCN(CC(=O)NCCCOCCOCCOCCCN*)CCN(CC(=O)O)CC1; DOTA = O=C(O)CN1CCN(CC(=O)O)CCN(CC(=O)*)CCN(CC(=O)O)CC1; Trp(7-Cl) = N[C@@H](Cc1c[nH]c2c(Cl)cccc12)C(=O)O; Phe(4-CF3) = N[C@@H](Cc1ccc(C(F)(F)F)cc1)C(=O)O; Trp(5-F) = N[C@@H](Cc1c[nH]c2ccc(F)cc12)C(=O)O; Phe(2-CF3) = N[C@@H](Cc1ccccc1C(F)(F)F)C(=O)O; Trp(7-aza) = N[C@@H](Cc1c[nH]c2ncccc12)C(=O)O; Phe(4-F) = N[C@@H](Cc1ccc(F)cc1)C(=O)O; 2Nal = N[C@@H](Cc1ccc2ccccc2c1)C(=O)O; C12 diacid = O=C(O)CCCCCCCCCCC(=O)*; ξThr(3R) = C[C@@H](O)C(N)C(=O)O; Chg = N[C@H](C(=O)O)C1CCCCC1; Suc = O=C(CCC(=O)[*:2])[*:1]; Lauroyl = CCCCCCCCCCCC(=O)*; Aze = O=C(O)[C@@H]1CCN1 Bounds are passed on as bounds.

The experiment concerns the target T1, human DLL3 (Homo sapiens, UniProt Q9NYJ7).
T1 sequence (Q9NYJ7 27-618): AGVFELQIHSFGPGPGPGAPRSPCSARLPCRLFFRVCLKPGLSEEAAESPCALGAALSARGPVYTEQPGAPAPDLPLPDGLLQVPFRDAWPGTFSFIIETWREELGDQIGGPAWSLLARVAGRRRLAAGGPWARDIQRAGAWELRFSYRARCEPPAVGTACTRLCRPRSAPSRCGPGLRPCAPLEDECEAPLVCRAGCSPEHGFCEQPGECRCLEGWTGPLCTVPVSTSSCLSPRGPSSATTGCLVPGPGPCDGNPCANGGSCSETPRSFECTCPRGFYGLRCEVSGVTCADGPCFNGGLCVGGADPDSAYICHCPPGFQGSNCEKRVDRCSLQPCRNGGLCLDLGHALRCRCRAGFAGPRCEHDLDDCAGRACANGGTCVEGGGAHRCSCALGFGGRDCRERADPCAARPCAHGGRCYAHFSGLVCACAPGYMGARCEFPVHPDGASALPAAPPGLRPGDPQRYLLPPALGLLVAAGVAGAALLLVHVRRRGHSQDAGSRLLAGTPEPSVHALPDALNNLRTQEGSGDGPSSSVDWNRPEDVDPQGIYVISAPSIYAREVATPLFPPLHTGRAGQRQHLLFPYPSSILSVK
Put plainly: Affinity determination by Surface Plasmon Resonance (SPR). The conditions noted are these: 25° C., biotinylated human DLL3 immobilized on streptavidin sensor chip, 1:1 binding model; read-out: SPR KD. Format: binding. The protocol: SPR studies were performed on the compounds disclosed herein using the following protocol.
Biotinylated target ligand human DLL3 was immobilized on a streptavidin sensor chip. A reference surface was set up for nonspecific binding and refractive index changes. For analysis of the kinetics of interactions, varying concentrations of samples were injected at a flow rate of 100 μL/minute using running buffer containing 20 mM phosphate buffer with 2.7 mM KCl, 137 mM NaCl, 0.05% Surfactant P20 and 2% DMSO. Sensorgram curves were fitted with 1:1 binding model, and affinity and kinetic parameters were obtained using Biacore Insight evaluation 4.0. software.
`CC[C@H](C)[C@H](NC(=O)[C@@H](NC(=O)[C@H](Cc1c[nH]c2c(Cl)cccc12)NC(C)=O)[C@@H](C)O)C(=O)N[C@H]1CSSC[C@@H](C(=O)N[C@@H](Cc2c[nH]c3ccccc23)C(=O)N2CCC[C@H]2C(=O)N[C@H](CCCCNC(=O)CN2CCN(CC(=O)O)CCN(CC(=O)O)CCN(CC(=O)O)CC2)C(N)=O)NC(=O)[C@H](CC(=O)O)NC(=O)[C@H](Cc2cnc[nH]2)NC(=O)[C@H](Cc2c[nH]c3ccccc23)NC(=O)[C@H](CC(N)=O)NC(=O)[C@H](CC(N)=O)NC1=O` [compound 226, Ac-(7-CI-W)-T-I-C(3)-N-N-W-H-D-C(3)-W-P-[D-Lys(DOTA)]-NH2] (Ac-[Trp(7-Cl)]TICNNWHDCWP[dK](DOTA)-NH2; disulfide 4-10): the Kd is 1 to 10 nM.
Turning to `CC(=O)N[C@@H](Cc1c[nH]c2ccc(F)cc12)C(=O)N[C@H](C(=O)N[C@@H](Cc1ccccc1C(F)(F)F)C(=O)N[C@H]1CSSC[C@@H](C(=O)N[C@@H](Cc2c[nH]c3ncccc23)C(=O)N2CC[C@H]2C(=O)N[C@H](CCCCNC(=O)CN2CCN(CC(=O)O)CCN(CC(=O)O)CCN(CC(=O)O)CC2)C(N)=O)NC(=O)[C@H](CC(=O)O)NC(=O)[C@H](Cc2cnc[nH]2)NC(=O)[C@H](Cc2ccc(C(F)(F)F)cc2)NC(=O)[C@H](CC(N)=O)NC(=O)[C@H](CC(N)=O)NC1=O)[C@@H](C)O` [compound 144, Ac-(5Fluoro-W)-T-(2CF3-F)-C(3)-N-N-(4CF3-F)-H-D-C(3)-(7Aza-W)-(Aze)-[D-Lys(DOTA)]-NH2] (Ac-[Trp(5-F)]T[Phe(2-CF3)]CNN[Phe(4-CF3)]HDC[Trp(7-aza)][Aze][dK](DOTA)-NH2; disulfide 4-10), the dissociation constant (Kd) lay within 1 to 10 nM.
Turning to `CC(=O)N[C@@H](Cc1c[nH]c2ccccc12)C(=O)N[C@H](C(=O)N[C@@H](Cc1ccc2ccccc2c1)C(=O)N[C@H]1CSSC[C@@H](C(=O)N[C@@H](Cc2c[nH]c3ccccc23)C(=O)N2CCC[C@H]2C(=O)N[C@H](CCCCNC(=O)CN2CCN(CC(=O)O)CCN(CC(=O)O)CCN(CC(=O)O)CC2)C(N)=O)NC(=O)[C@H](CC(=O)O)NC(=O)[C@H](Cc2c[nH]cn2)NC(=O)[C@H](Cc2c[nH]c3ccccc23)NC(=O)[C@H](CC(N)=O)NC(=O)[C@H](CC(N)=O)NC1=O)[C@@H](C)O` [compound 116, Ac-W-T-(2Nal)-C(3)-N-N-W-H-D-C(3)-W-P-[D-Lys(DOTA)]-NH2] (Ac-WT[2Nal]CNNWHDCWP[dK](DOTA)-NH2; disulfide 4-10), the Kd lay within 10 to 100 nM.
Take `CC(=O)N[C@@H](Cc1c[nH]c2ccc(F)cc12)C(=O)N[C@H](C(=O)N[C@@H](Cc1ccccc1C(F)(F)F)C(=O)N[C@H]1CSSC[C@@H](C(=O)N[C@@H](Cc2c[nH]c3ncccc23)C(=O)N2CC[C@H]2C(=O)N[C@H](CCCCNC(=O)CN2CCN(CC(=O)O)CCN(CC(=O)O)CCN(CC(=O)O)CC2)C(N)=O)NC(=O)[C@H](CC(=O)O)NC(=O)[C@H](Cc2cnc[nH]2)NC(=O)[C@H](Cc2ccc(F)cc2)NC(=O)[C@H](CC(N)=O)NC(=O)[C@H](CC(N)=O)NC1=O)[C@@H](C)O` [compound 128, Ac-(5Fluoro-W)-T-(2CF3-F)-C(3)-N-N-(4Fluoro-F)-H-D-C(3)-(7Aza-W)-(Aze)-[D-Lys(DOTA)]-NH2] (Ac-[Trp(5-F)]T[Phe(2-CF3)]CNN[Phe(4-F)]HDC[Trp(7-aza)][Aze][dK](DOTA)-NH2; disulfide 4-10): the dissociation constant (Kd) lay in the range of 1 to 10 nM.
`CC[C@H](C)[C@H](NC(=O)[C@@H](NC(=O)[C@H](Cc1c[nH]c2ccccc12)NC(C)=O)[C@@H](C)O)C(=O)N[C@H]1CSSC[C@@H](C(=O)N[C@@H](Cc2c[nH]c3ccccc23)C(=O)N2CCC[C@H]2C(=O)N[C@H](CCCCNC(=O)C[C@H]2CC[C@H](NC(=O)CN3CCN(CC(=O)O)CCN(CC(=O)O)CCN(CC(=O)O)CC3)CC2)C(N)=O)NC(=O)[C@H](CC(=O)O)NC(=O)[C@H](Cc2cnc[nH]2)NC(=O)[C@H](Cc2c[nH]c3ccccc23)NC(=O)[C@H](CC(N)=O)NC(=O)[C@H](CC(N)=O)NC1=O` [compound 48, Ac-W-T-I-C(3)-N-N-W-H-D-C(3)-W-P-(D-Lys)-CyHex-DOTA-NH2] (Ac-WTICNNWHDCWP[dK](X4)-NH2; disulfide 4-10): the Kd was 1 to 10 nM.
In the case of `CC(=O)N[C@@H](Cc1c[nH]c2ccccc12)C(=O)NC(C(=O)N[C@H](C(=O)N[C@H]1CSSC[C@@H](C(=O)N[C@@H](Cc2c[nH]c3ncccc23)C(=O)N2CCC[C@H]2C(=O)N[C@H](CCCCNC(=O)CN2CCN(CC(=O)O)CCN(CC(=O)O)CCN(CC(=O)O)CC2)C(N)=O)NC(=O)[C@H](CC(=O)O)NC(=O)[C@H](Cc2cnc[nH]2)NC(=O)[C@H](Cc2ccc3ccccc3c2)NC(=O)[C@H](CC(N)=O)NC(=O)[C@H](C)NC1=O)C1CCCCC1)[C@@H](C)O` (stereo partly drawn) [compound 194, Ac-W-T-(Chg)-C(3)-A-N-(2Nal)-H-D-C(3)-(7-Aza-W)-P-[D-Lys(DOTA)]-NH2] (Ac-W[ξThr(3R)][Chg]CAN[2Nal]HDC[Trp(7-aza)]P[dK](DOTA)-NH2; disulfide 4-10), the Kd was less than 1 nM.
For the molecule `CC[C@H](C)[C@H](NC(=O)[C@@H](NC(=O)[C@H](Cc1c[nH]c2ccccc12)NC(C)=O)[C@@H](C)O)C(=O)N[C@H]1CSSC[C@@H](C(=O)N[C@@H](Cc2c[nH]c3ccccc23)C(=O)N2CCC[C@H]2C(=O)N[C@H](CCCCNC(=O)CNC(=O)CNC(=O)CCC(=O)NCCCOCCOCCOCCCNC(=O)CN2CCN(CC(=O)O)CCN(CC(=O)O)CCN(CC(=O)O)CC2)C(N)=O)NC(=O)[C@H](CC(=O)O)NC(=O)[C@H](Cc2cnc[nH]2)NC(=O)[C@H](Cc2ccc3ccccc3c2)NC(=O)[C@H](CC(N)=O)NC(=O)[C@H](CC(N)=O)NC1=O` [compound 230, Ac-W-T-I-C(3)-N-N-(2Nal)-H-D-C(3)-W-P-[D-Lys(G-G-TTDS-DOTA)]-NH2] (Ac-WTICNN[2Nal]HDCWP[dK]([Gly-Gly-Suc-X9])-NH2; disulfide 4-10), the Kd was less than 1 nM.
Turning to `CCCCCCCCCCCC(=O)NCCCC[C@H](NC(=O)[C@@H](NC(=O)[C@H](Cc1c[nH]c2ccccc12)NC(C)=O)[C@@H](C)O)C(=O)N[C@H]1CSSC[C@@H](C(=O)N[C@@H](Cc2c[nH]c3ccccc23)C(=O)N2CCC[C@H]2C(=O)N[C@H](CCCCNC(=O)CN2CCN(CC(=O)O)CCN(CC(=O)O)CCN(CC(=O)O)CC2)C(N)=O)NC(=O)[C@H](CC(=O)O)NC(=O)[C@H](Cc2cnc[nH]2)NC(=O)[C@H](Cc2c[nH]c3ccccc23)NC(=O)[C@H](CC(N)=O)NC(=O)[C@H](CC(N)=O)NC1=O` [compound 346, Ac-W-T-K(C12)-C(3)-N-N-W-H-D-C(3)-W-P-[D-Lys(DOTA)]-NH2] (Ac-WTK(Lauroyl)CNNWHDCWP[dK](DOTA)-NH2; disulfide 4-10), the Kd lay within 10 to 100 nM.
For the molecule `CC[C@H](C)[C@H](NC(=O)[C@@H](NC(=O)[C@H](Cc1c[nH]c2ccccc12)NC(=O)CCCCCCCCCCC(=O)O)[C@@H](C)O)C(=O)N[C@H]1CSSC[C@@H](C(=O)N[C@@H](Cc2c[nH]c3ccccc23)C(=O)N2CCC[C@H]2C(=O)N[C@H](CCCCNC(=O)CN2CCN(CC(=O)O)CCN(CC(=O)O)CCN(CC(=O)O)CC2)C(N)=O)NC(=O)[C@H](CC(=O)O)NC(=O)[C@H](Cc2cnc[nH]2)NC(=O)[C@H](Cc2c[nH]c3ccccc23)NC(=O)[C@H](CC(N)=O)NC(=O)[C@H](CC(N)=O)NC1=O` [compound 349, C12OH-W-T-I-C(3)-N-N-W-H-D-C(3)-W-P-[D-Lys(DOTA)]-NH2] ({C12 diacid}-WTICNNWHDCWP[dK](DOTA)-NH2; disulfide 4-10), the Kd fell in the range of 1 to 10 nM.

Values taken from US20250011368A1, “DLL3 TARGETING PEPTIDES AND CONSTRUCTS THEREOF” (MARIANA ONCOLOGY INC., priority 2023, published 2025).
